Test results: ChEMBL document CHEMBL4411303, “Synthesis of tetrazole derivatives bearing pyrrolidine scaffold and evaluation of their antifungal activity against Candida albicans” (Eur J Med Chem, 2019)

How the values were obtained:
Type in all cases: functional
[1] = tested on: Candida albicans; experiment: Antifungal activity against Candida albicans ATCC 90028 assessed as planktonic growth inhibition at 46.05 uM after 48 hrs by M27-A3 protocol based method relative to control; conditions: ATCC 90028, 48 h, read-out: GI
[2] = tested on: Candida albicans; experiment: Antifungal activity against Candida albicans ATCC 90028 assessed as planktonic growth inhibition at 23.02 uM after 48 hrs by M27-A3 protocol based method relative to control; conditions: ATCC 90028, 48 h, read-out: GI
[3] = tested on: Candida albicans; experiment: Antifungal activity against Candida albicans ATCC 90028 assessed as planktonic growth inhibition at 11.51 uM after 48 hrs by M27-A3 protocol based method relative to control; conditions: ATCC 90028, 48 h, read-out: GI
[4] = tested on: Candida albicans; experiment: Antifungal activity against Candida albicans ATCC 90028 assessed as planktonic growth inhibition at 1.44 uM after 48 hrs by M27-A3 protocol based method relative to control; conditions: ATCC 90028, 48 h, read-out: GI
[5] = tested on: Candida albicans; experiment: Antifungal activity against Candida albicans ATCC 90028 assessed as planktonic growth inhibition at 0.72 uM after 48 hrs by M27-A3 protocol based method relative to control; conditions: ATCC 90028, 48 h, read-out: GI
[6] = tested on: Candida albicans; experiment: Antifungal activity against Candida albicans ATCC 90028 assessed as planktonic growth inhibition at 2.88 uM after 48 hrs by M27-A3 protocol based method relative to control; conditions: ATCC 90028, 48 h, read-out: GI
[7] = tested on: Candida albicans; experiment: Antifungal activity against Candida albicans ATCC 90028 assessed as planktonic growth inhibition at 0.18 uM after 48 hrs by M27-A3 protocol based method relative to control; conditions: ATCC 90028, 48 h, read-out: GI
[8] = tested on: Candida albicans; experiment: Antifungal activity against Candida albicans ATCC 90028 assessed as planktonic growth inhibition at 0.36 uM after 48 hrs by M27-A3 protocol based method relative to control; conditions: ATCC 90028, 48 h, read-out: GI
[9] = tested on: Candida albicans; experiment: Antifungal activity against Candida albicans ATCC 90028 assessed as planktonic growth inhibition at 0.09 uM after 48 hrs by M27-A3 protocol based method relative to control; conditions: ATCC 90028, 48 h, read-out: GI
[10] = tested on: Candida albicans; experiment: Antifungal activity against Candida albicans ATCC 90028 assessed as planktonic growth inhibition at 5.76 uM after 48 hrs by M27-A3 protocol based method relative to control; conditions: ATCC 90028, 48 h, read-out: GI
[11] = tested on: Candida albicans; experiment: Fungicidal activity against Candida albicans ATCC 90028 assessed as log reduction in fungal load incubated for 48 hrs followed by replating on sabouraud dextrose agar plate and measured after 48 hrs
[12] = tested on: Candida albicans; experiment: Antifungal activity against Candida albicans ATCC 90028 assessed as planktonic growth inhibition at 0.08 uM after 48 hrs by M27-A3 protocol based method relative to control; conditions: ATCC 90028, 48 h, read-out: GI
[13] = tested on: Candida albicans; experiment: Antifungal activity against Candida albicans ATCC 90028 assessed as planktonic growth inhibition at 0.34 uM after 48 hrs by M27-A3 protocol based method relative to control; conditions: ATCC 90028, 48 h, read-out: GI
[14] = tested on: Candida albicans; experiment: Antifungal activity against Candida albicans ATCC 90028 assessed as planktonic growth inhibition at 2.72 uM after 48 hrs by M27-A3 protocol based method relative to control; conditions: ATCC 90028, 48 h, read-out: GI
[15] = tested on: Candida albicans; experiment: Antifungal activity against Candida albicans ATCC 90028 assessed as planktonic growth inhibition at 0.17 uM after 48 hrs by M27-A3 protocol based method relative to control; conditions: ATCC 90028, 48 h, read-out: GI
[16] = tested on: Candida albicans; experiment: Antifungal activity against Candida albicans ATCC 90028 assessed as planktonic growth inhibition at 10.87 uM after 48 hrs by M27-A3 protocol based method relative to control; conditions: ATCC 90028, 48 h, read-out: GI
[17] = tested on: Candida albicans; experiment: Antifungal activity against Candida albicans ATCC 90028 assessed as planktonic growth inhibition at 21.75 uM after 48 hrs by M27-A3 protocol based method relative to control; conditions: ATCC 90028, 48 h, read-out: GI
[18] = tested on: Candida albicans; experiment: Antifungal activity against Candida albicans ATCC 90028 assessed as planktonic growth inhibition at 1.36 uM after 48 hrs by M27-A3 protocol based method relative to control; conditions: ATCC 90028, 48 h, read-out: GI
[19] = tested on: Candida albicans; experiment: Antifungal activity against Candida albicans ATCC 90028 assessed as planktonic growth inhibition at 5.44 uM after 48 hrs by M27-A3 protocol based method relative to control; conditions: ATCC 90028, 48 h, read-out: GI
[20] = tested on: Candida albicans; experiment: Antifungal activity against Candida albicans ATCC 90028 assessed as planktonic growth inhibition at 0.68 uM after 48 hrs by M27-A3 protocol based method relative to control; conditions: ATCC 90028, 48 h, read-out: GI
[21] = tested on: Candida albicans; experiment: Antifungal activity against Candida albicans ATCC 90028 assessed as planktonic growth inhibition at 43.49 uM after 48 hrs by M27-A3 protocol based method relative to control; conditions: ATCC 90028, 48 h, read-out: GI
[22] = tested on: Candida albicans; experiment: Antifungal activity against Candida albicans ATCC 90028 assessed as planktonic growth inhibition at 1.31 uM after 48 hrs by M27-A3 protocol based method relative to control; conditions: ATCC 90028, 48 h, read-out: GI
[23] = tested on: Candida albicans; experiment: Antifungal activity against Candida albicans ATCC 90028 assessed as planktonic growth inhibition at 0.16 uM after 48 hrs by M27-A3 protocol based method relative to control; conditions: ATCC 90028, 48 h, read-out: GI
[24] = tested on: Candida albicans; experiment: Antifungal activity against Candida albicans ATCC 90028 assessed as planktonic growth inhibition at 2.62 uM after 48 hrs by M27-A3 protocol based method relative to control; conditions: ATCC 90028, 48 h, read-out: GI
[25] = tested on: Candida albicans; experiment: Antifungal activity against Candida albicans ATCC 90028 assessed as planktonic growth inhibition at 20.95 uM after 48 hrs by M27-A3 protocol based method relative to control; conditions: ATCC 90028, 48 h, read-out: GI
[26] = tested on: Candida albicans; experiment: Antifungal activity against Candida albicans ATCC 90028 assessed as planktonic growth inhibition at 10.47 uM after 48 hrs by M27-A3 protocol based method relative to control; conditions: ATCC 90028, 48 h, read-out: GI
[27] = tested on: Candida albicans; experiment: Antifungal activity against Candida albicans ATCC 90028 assessed as planktonic growth inhibition at 0.65 uM after 48 hrs by M27-A3 protocol based method relative to control; conditions: ATCC 90028, 48 h, read-out: GI
[28] = tested on: Candida albicans; experiment: Antifungal activity against Candida albicans ATCC 90028 assessed as planktonic growth inhibition at 0.33 uM after 48 hrs by M27-A3 protocol based method relative to control; conditions: ATCC 90028, 48 h, read-out: GI
[29] = tested on: Candida albicans; experiment: Antifungal activity against Candida albicans ATCC 90028 assessed as planktonic growth inhibition at 5.24 uM after 48 hrs by M27-A3 protocol based method relative to control; conditions: ATCC 90028, 48 h, read-out: GI
[30] = tested on: Candida albicans; experiment: Antifungal activity against Candida albicans ATCC 90028 assessed as planktonic growth inhibition at 41.9 uM after 48 hrs by M27-A3 protocol based method relative to control; conditions: ATCC 90028, 48 h, read-out: GI

| Compound | inhibition of growth at 46.05 µM [1] | inhibition of growth at 23.02 µM [2] | inhibition of growth at 11.51 µM [3] | inhibition of growth at 1.44 µM [4] | inhibition of growth at 0.72 µM [5] | inhibition of growth at 2.88 µM [6] | inhibition of growth at 0.18 µM [7] | inhibition of growth at 0.36 µM [8] | inhibition of growth at 0.09 µM [9] | inhibition of growth at 5.76 µM [10] | log(activity) [11] | inhibition of growth at 0.08 µM [12] | inhibition of growth at 1.31 µM [22] | inhibition of growth at 0.16 µM [23] | inhibition of growth at 2.62 µM [24] | inhibition of growth at 20.95 µM [25] | inhibition of growth at 10.47 µM [26] | inhibition of growth at 0.65 µM [27] | inhibition of growth at 0.33 µM [28] | inhibition of growth at 5.24 µM [29] | other results |
| --- | --- | --- | --- | --- | --- | --- | --- | --- | --- | --- | --- | --- | --- | --- | --- | --- | --- | --- | --- | --- | --- |
| Cc1ccc(C2CCCN2CCCn2nnc(-c3ccccc3)n2)cc1 (stereo not given) | 99% | 99% | 99.5% | 99.2% | 99.3% | 99.2% | 99.3% | 99% | 98.9% | 99.2% | -0.6 |  |  |  |  |  |  |  |  |  |  |
| Cc1ccc(-c2nnn(CCCN3CCCC3c3ccccc3)n2)cc1 (stereo not given) | 98.5% | 99.4% | 93.4% | 97.8% | 98.8% | 95.1% | 99.8% | 98.8% | 99% | 94.4% | -1 |  |  |  |  |  |  |  |  |  |  |
| Clc1ccc(-c2nnn(CCCN3CCCC3c3ccccc3)n2)cc1 (stereo not given) |  |  |  |  |  |  |  |  |  |  | -0.5 | 99.3% |  |  |  |  |  |  |  |  | inhibition of growth at 0.34 µM [13]: 99.3%; inhibition of growth at 2.72 µM [14]: 99.4%; inhibition of growth at 0.17 µM [15]: 99.3%; inhibition of growth at 10.87 µM [16]: 99.2%; inhibition of growth at 21.75 µM [17]: 99.2%; inhibition of growth at 1.36 µM [18]: 99.4%; inhibition of growth at 5.44 µM [19]: 99.3%; inhibition of growth at 0.68 µM [20]: 99.3%; inhibition of growth at 43.49 µM [21]: 99.1% |
| Cc1ccc(-c2nnn(CCCN3CCCC3c3ccc(Cl)cc3)n2)cc1 (stereo not given) |  |  |  |  |  |  |  |  |  |  | -0.4 | 99.4% | 99.2% | 99.5% | 99.3% | 99.2% | 99.4% | 99.1% | 99.2% | 99% | inhibition of growth at 41.9 µM [30]: 98.8% |
| Cc1ccc(C2CCCN2CCCn2nnc(-c3ccc(Cl)cc3)n2)cc1 (stereo not given) |  |  |  |  |  |  |  |  |  |  | -0.5 | 99.2% | 99.4% | 99.1% | 99.2% | 99.4% | 99.4% | 99.2% | 99.3% | 99.4% | inhibition of growth at 41.9 µM [30]: 99.2% |
